Literature values as cited in US20040171518A1, “Compounds for protein stabilization and methods for their use” (Medtronic MiniMed, Inc., priority 2003, published 2004).
Where two headings read alike, the source gives them in different places.

In the case of `O=C(O)CCC(=O)NCCCCC1NC(=O)C(CCCCNC(=O)CCC(=O)O)NC1=O` (centres unmarked) [2,5-diketo-3,6-di(4-succinylaminobutyl)piperazine], the solubility (acidic aqueous solutions) is given as “quite insoluble” and the solubility (weakly alkaline aqueous solution) is given as “readily soluble”.
